# Source: patent publication US20090143279A1 (priority 2007, published 2009)
# Read-outs that look alike come from different tables or passages of the source.
# Assays:
# [1] = test system: mitochondrial membrane potential; assay type: cell-based, mouse; details: for ΔΨm (composite Z-score): normalized score vs mock-treated (DMSO) wells
# reactive oxygen species = assay type: cell-based, mouse; details: for ROS (composite Z-score): normalized score vs mock-treated (DMSO) wells
# OXPHOS gene expression = assay type: cell-based, mouse; details: for GE-HTS (composite Z-score): normalized score vs mock-treated (DMSO) wells
# nuOXPHOS transcripts = assay type: cell-based, mouse; details: for nucOX (composite Z-score): normalized score vs mock-treated (DMSO) wells
# mtOXPHOS transcripts = assay type: cell-based, mouse; details: for mitoOX (composite Z-score): normalized score vs mock-treated (DMSO) wells
# cytochrome c = assay type: cell-based, mouse; details: for cyt c (composite Z-score): normalized score vs mock-treated (DMSO) wells
# C2C12 myotubes = details: for Viability (composite Z-score): normalized score vs mock-treated (DMSO) wells
# [2] = test system: cellular dehydrogenase activity; details: for MTT (composite Z-score): normalized score vs mock-treated (DMSO) wells
# [3] = composite Z-score vs DMSO, Conc 20 μM
# [4] = normalized composite Z-score vs mock-treated (DMSO) wells, Conc 20 μM
# [5] = composite Z-score vs DMSO wells, Conc 20 μM
# [6] = 13.14 μM, composite Z-score vs DMSO
# [7] = 20 μM, composite Z-score vs DMSO
# [8] = 7.92 μM, composite Z-score vs DMSO
# [9] = composite Z-score vs mock-treated (DMSO) wells, concentration of each compound in μM
compound,measurement,setting,value
CO/N=C(\C(=O)N[C@@H]1C(=O)N2C(C(=O)O)=C(COC(N)=O)CS[C@H]12)c1ccco1 [cefuroxime],ΔΨm,[1]; [3],−0.358
same,ROS,reactive oxygen species; [3],0.366
same,GE-HTS,OXPHOS gene expression; [3],0.816
same,nucOX,nuOXPHOS transcripts; [3],0.790
same,mitoOX,mtOXPHOS transcripts; [3],0.699
same,cyt c,cytochrome c; [3],−0.495
same,Viability,C2C12 myotubes; [3],−0.846
same,MTT,[2]; [3],−0.536
OC[C@H]1O[C@@H](O[C@H]2[C@H](O)[C@@H](O)[C@H](O)O[C@@H]2CO)[C@H](O)[C@@H](O)[C@@H]1O [cellobiose (D[+])],ΔΨm,[1]; [4],−0.571
same,ROS,reactive oxygen species; [4],−0.298
same,GE-HTS,OXPHOS gene expression; [4],−0.127
same,nucOX,nuOXPHOS transcripts; [4],0.051
same,mitoOX,mtOXPHOS transcripts; [4],−0.466
same,cyt c,cytochrome c; [4],0.380
same,Viability,C2C12 myotubes; [4],0.390
same,MTT,[2]; [4],0.411
COc1ccc(-c2oc3cc(O[C@@H]4O[C@H](CO)[C@@H](O)[C@H](O)[C@H]4O)c(OC)c(O)c3c(=O)c2OC)cc1O [centaurein],ΔΨm (composite Z-score),[1]; Conc 20 μM,−0.744
same,ROS (composite Z-score),reactive oxygen species; Conc 20 μM,−0.090
same,GE-HTS (composite Z-score),OXPHOS gene expression; Conc 20 μM,0.497
same,nucOX (composite Z-score),nuOXPHOS transcripts; Conc 20 μM,0.388
same,mitoOX (composite Z-score),mtOXPHOS transcripts; Conc 20 μM,0.657
same,cyt c (composite Z-score),cytochrome c; Conc 20 μM,−0.039
same,Viability (composite Z-score),C2C12 myotubes; Conc 20 μM,−0.006
same,MTT (composite Z-score),[2]; Conc 20 μM,−1.640
"CCOC(=O)CCCCCCCCCCCCC1C=CCC1 (centres unmarked) [chaulmoogric acid, ethyl ester]",ΔΨm,[1]; [5],−0.536
same,ROS,reactive oxygen species; [5],0.513
same,GE-HTS,OXPHOS gene expression; [5],−0.730
same,nucOX,nuOXPHOS transcripts; [5],−0.876
same,mitoOX,mtOXPHOS transcripts; [5],−0.265
same,cyt c,cytochrome c; [5],0.617
same,Viability,C2C12 myotubes; [5],−0.015
same,MTT,[2]; [5],−0.612
O=C(CCCCCCCCCCCCC1CCCC1)Nc1ccc(S(=O)(=O)c2ccc(NC(=O)CCCCCCCCCCCCC3CCCC3)cc2)cc1 [chaulmosulfone],ΔΨm (composite Z-score),[1]; Conc 20 μM,−0.993
same,ROS (composite Z-score),reactive oxygen species; Conc 20 μM,0.935
same,GE-HTS (composite Z-score),OXPHOS gene expression; Conc 20 μM,0.157
same,nucOX (composite Z-score),nuOXPHOS transcripts; Conc 20 μM,0.083
same,mitoOX (composite Z-score),mtOXPHOS transcripts; Conc 20 μM,0.305
same,cyt c (composite Z-score),cytochrome c; Conc 20 μM,−0.036
same,Viability (composite Z-score),C2C12 myotubes; Conc 20 μM,−0.010
same,MTT (composite Z-score),[2]; Conc 20 μM,−0.289
O=C(O)CCCc1ccc(N(CCCl)CCCl)cc1 [chlorambucil],ΔΨm,[1]; [6],0.199
same,ΔΨm,[1]; [7],−0.826
same,ROS,reactive oxygen species; [6],0.056
same,ROS,reactive oxygen species; [7],0.165
same,GE-HTS,OXPHOS gene expression; [6],0.249
same,GE-HTS,OXPHOS gene expression; [7],0.725
same,nucOX,nuOXPHOS transcripts; [6],0.147
same,nucOX,nuOXPHOS transcripts; [7],0.360
same,mitoOX,mtOXPHOS transcripts; [6],0.398
same,mitoOX,mtOXPHOS transcripts; [7],1.273
same,cyt c,cytochrome c; [6],0.035
same,cyt c,cytochrome c; [7],−0.955
same,Viability,C2C12 myotubes; [6],−0.507
same,Viability,C2C12 myotubes; [7],−0.007
same,MTT,[2]; [6],−0.069
same,MTT,[2]; [7],−1.519
[H]/N=C(\N/C(=N/[H])NCCCCCCNC(=N)NC(=N)Nc1ccc(Cl)cc1)Nc1ccc(Cl)cc1 [chlorhexidine],ΔΨm,[1]; [8],0.348
same,ΔΨm,[1]; [7],0.412
same,ROS,reactive oxygen species; [8],−2.490
same,ROS,reactive oxygen species; [7],1.660
same,GE-HTS,OXPHOS gene expression; [8],0.775
same,GE-HTS,OXPHOS gene expression; [7],−0.455
same,nucOX,nuOXPHOS transcripts; [8],0.990
same,nucOX,nuOXPHOS transcripts; [7],−0.592
same,mitoOX,mtOXPHOS transcripts; [8],0.140
same,mitoOX,mtOXPHOS transcripts; [7],−0.141
same,cyt c,cytochrome c; [8],0.090
same,cyt c,cytochrome c; [7],−1.683
same,Viability,C2C12 myotubes; [8],−1.859
same,Viability,C2C12 myotubes; [7],−0.976
same,MTT,[2]; [8],−4.138
same,MTT,[2]; [7],−2.340
Cc1cc(O)ccc1Cl [chlorocresol],ΔΨm,[1]; [7],0.528
same,ROS,reactive oxygen species; [7],0.102
same,GE-HTS,OXPHOS gene expression; [7],0.206
same,nucOX,nuOXPHOS transcripts; [7],0.611
same,mitoOX,mtOXPHOS transcripts; [7],−0.728
same,cyt c,cytochrome c; [7],0.747
same,Viability,C2C12 myotubes; [7],−0.414
same,MTT,[2]; [7],−0.607
C=Cc1c(C)c2cc3nc(c4c5[n-]c(cc6nc(cc1[n-]2)C(C)=C6CC)c(C)c5C(=O)[C@@H]4C(=O)OC)[C@@H](CCC(=O)O)[C@@H]3C.[Mg+2] [chlorophyllide],ΔΨm,[1]; [9],−0.783
same,ROS,reactive oxygen species; [9],1.042
same,GE-HTS,OXPHOS gene expression; [9],0.282
same,nucOX,nuOXPHOS transcripts; [9],0.303
same,mitoOX,mtOXPHOS transcripts; [9],0.224
same,cyt c,cytochrome c; [9],−1.157
same,Viability,C2C12 myotubes; [9],−0.178
same,MTT,[2]; [9],0.307
NS(=O)(=O)c1cc2c(cc1Cl)N=CNS2(=O)=O [chlorothiazide],ΔΨm,[1]; [5],−0.831
same,ROS,reactive oxygen species; [5],1.202
same,GE-HTS,OXPHOS gene expression; [5],−0.331
same,nucOX,nuOXPHOS transcripts; [5],−0.608
same,mitoOX,mtOXPHOS transcripts; [5],0.221
same,cyt c,cytochrome c,0.431
same,cyt c,cytochrome c; [5],0.566
same,Viability,C2C12 myotubes; [5],0.116
same,MTT,[2]; [5],−0.711
Oc1c(Cl)cc(Cl)c2cccnc12 [chloroxine],ΔΨm,[1]; [5],1.120
same,ROS,reactive oxygen species; [5],−2.934
same,GE-HTS,OXPHOS gene expression; [5],−1.089
same,nucOX,nuOXPHOS transcripts; [5],−0.461
same,mitoOX,mtOXPHOS transcripts; [5],−2.181
same,cyt c,cytochrome c; [5],−0.800
same,Viability,C2C12 myotubes; [5],−1.392
same,MTT,[2]; [5],−2.014
Cc1cc(O)cc(C)c1Cl [chloroxylenol],ΔΨm,[1]; [7],−0.917
same,ROS,reactive oxygen species; [7],2.165
same,GE-HTS,OXPHOS gene expression; [7],−0.811
same,nucOX,nuOXPHOS transcripts; [7],−0.857
same,mitoOX,mtOXPHOS transcripts; [7],−0.614
same,cyt c,cytochrome c; [7],0.499
same,Viability,C2C12 myotubes; [7],−0.639
same,MTT,[2]; [7],−2.046
